# How the values were obtained:
# [1] = biological target: T1, Acetylcholinesterase (Electrophorus electricus, UniProt O42275); test: Inhibition of electric eel AChE using acetylthiocholine iodide as substrate measured for 120 secs by spectrophotometric analysis
# [2] = tested on: UCLA P-3; test: Antiproliferative activity against human UCLA-P3 cells; assay type: functional, cell-based
# [3] = tested on: MOLT-4; test: Antiproliferative activity against human MOLT4 cells; assay type: functional, cell-based
# [4] = Inhibition of bovine brain tubulin polymerization after 10 mins by UV-vis spectrophotometric analysis; parameters: species or system Bos taurus
# [5] = tested on: Mycobacterium tuberculosis; test: Antitubercular activity against Mycobacterium tuberculosis H37Rv; assay type: functional
# [6] = biological target: T2, Phospholipase A2, membrane associated (Homo sapiens) (UniProt P14555); test: Inhibition of human sPLA2-2A at 100 uM relative to control
# T2 sequence (whole entry): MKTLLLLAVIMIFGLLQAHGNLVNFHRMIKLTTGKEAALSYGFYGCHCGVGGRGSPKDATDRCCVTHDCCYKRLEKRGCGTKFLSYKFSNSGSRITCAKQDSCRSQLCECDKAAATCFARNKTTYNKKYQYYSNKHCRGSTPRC
# [7] = biological target: T2, Phospholipase A2, membrane associated (Homo sapiens); test: Inhibition of human sPLA2-2A assessed as reduction in nitric oxide level at 10 uM relative to control
# [8] = biological target: T2, Phospholipase A2, membrane associated (Homo sapiens); test: Inhibition of human sPLA2-2A assessed as reduction in PGE2 level at 10 uM relative to control
# [9] = tested on: A549; test: Cytotoxicity against human A549 cells assessed as reduction in cell viability; assay type: functional; conditions: read-out: ED50 (the source's name)
# [10] = biological target: T3, Acetylcholinesterase (Bos taurus, UniProt P23795); test: Inhibition of bovine erythrocyte AchE using acetylthiocholine iodide as substrate after 15 mins by spectrophotometric analysis
# T3 sequence (P23795 whole entry): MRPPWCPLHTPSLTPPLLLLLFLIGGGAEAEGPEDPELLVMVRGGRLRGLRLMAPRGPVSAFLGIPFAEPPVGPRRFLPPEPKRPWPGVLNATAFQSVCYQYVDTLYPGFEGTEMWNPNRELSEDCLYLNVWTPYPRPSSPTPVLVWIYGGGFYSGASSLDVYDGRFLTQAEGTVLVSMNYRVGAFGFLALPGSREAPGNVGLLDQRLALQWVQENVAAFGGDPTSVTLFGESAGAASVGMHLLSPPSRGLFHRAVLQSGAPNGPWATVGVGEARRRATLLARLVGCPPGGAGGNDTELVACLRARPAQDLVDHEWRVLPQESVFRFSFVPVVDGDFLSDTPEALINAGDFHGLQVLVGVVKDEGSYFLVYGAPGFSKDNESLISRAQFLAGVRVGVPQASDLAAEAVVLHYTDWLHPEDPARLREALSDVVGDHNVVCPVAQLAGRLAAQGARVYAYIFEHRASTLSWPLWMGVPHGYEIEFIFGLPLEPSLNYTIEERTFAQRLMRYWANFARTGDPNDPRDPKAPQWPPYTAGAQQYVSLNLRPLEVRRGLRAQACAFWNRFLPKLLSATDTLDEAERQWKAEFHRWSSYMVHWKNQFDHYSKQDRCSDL
# [11] = biological target: Acetylcholinesterase (Electrophorus electricus) (UniProt O42275); test: Potency index, ratio of galantamine IC50 to test compound IC50 for electric eel AChE
# Sequence of Acetylcholinesterase (Electrophorus electricus) (O42275 24-633 limits assumed): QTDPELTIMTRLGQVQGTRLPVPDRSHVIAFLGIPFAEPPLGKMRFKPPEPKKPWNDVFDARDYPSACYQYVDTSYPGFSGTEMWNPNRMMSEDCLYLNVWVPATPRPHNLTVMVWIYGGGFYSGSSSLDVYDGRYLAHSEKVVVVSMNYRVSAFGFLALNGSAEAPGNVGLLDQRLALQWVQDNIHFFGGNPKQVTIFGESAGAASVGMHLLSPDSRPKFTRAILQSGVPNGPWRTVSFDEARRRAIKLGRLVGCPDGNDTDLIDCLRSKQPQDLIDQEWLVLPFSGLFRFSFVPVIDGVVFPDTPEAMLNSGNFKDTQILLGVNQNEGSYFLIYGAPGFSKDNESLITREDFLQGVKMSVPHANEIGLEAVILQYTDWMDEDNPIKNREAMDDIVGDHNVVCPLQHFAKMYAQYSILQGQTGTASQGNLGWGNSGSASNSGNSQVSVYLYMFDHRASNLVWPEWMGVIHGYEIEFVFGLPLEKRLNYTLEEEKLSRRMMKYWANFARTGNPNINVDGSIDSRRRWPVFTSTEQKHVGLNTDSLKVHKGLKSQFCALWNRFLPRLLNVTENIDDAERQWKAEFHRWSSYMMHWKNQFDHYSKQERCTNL
# [12] = biological target: T1, Acetylcholinesterase; test: Inhibition of electric eel AChE
# [13] = Cytotoxicity against mouse […] cells assessed as reduction in cell viability after 24 to 72 hrs by MTT assay; assay type: cell-based
# [14] = Cytotoxicity against bovine GM07373 cells assessed as reduction in cell viability after 24 to 72 hrs by MTT assay; assay type: cell-based; conditions: Bos taurus
# [15] = tested on: P338; test: Cytotoxicity against mouse […] cells assessed as reduction in cell viability after 24 to 72 hrs by MTT assay; assay type: functional, cell-based
# [16] = tested on: IGR-1; test: Cytotoxicity against human IGR-1 cells assessed as reduction in cell viability after 24 to 72 hrs by MTT assay; assay type: functional, cell-based
# [17] = biological target: T4, Receptor tyrosine-protein kinase erbB-2 (Homo sapiens, UniProt P04626); test: Inhibition of HER2 in human MCF-7 cells; assay type: cell-based
# T4 sequence (P04626 whole entry): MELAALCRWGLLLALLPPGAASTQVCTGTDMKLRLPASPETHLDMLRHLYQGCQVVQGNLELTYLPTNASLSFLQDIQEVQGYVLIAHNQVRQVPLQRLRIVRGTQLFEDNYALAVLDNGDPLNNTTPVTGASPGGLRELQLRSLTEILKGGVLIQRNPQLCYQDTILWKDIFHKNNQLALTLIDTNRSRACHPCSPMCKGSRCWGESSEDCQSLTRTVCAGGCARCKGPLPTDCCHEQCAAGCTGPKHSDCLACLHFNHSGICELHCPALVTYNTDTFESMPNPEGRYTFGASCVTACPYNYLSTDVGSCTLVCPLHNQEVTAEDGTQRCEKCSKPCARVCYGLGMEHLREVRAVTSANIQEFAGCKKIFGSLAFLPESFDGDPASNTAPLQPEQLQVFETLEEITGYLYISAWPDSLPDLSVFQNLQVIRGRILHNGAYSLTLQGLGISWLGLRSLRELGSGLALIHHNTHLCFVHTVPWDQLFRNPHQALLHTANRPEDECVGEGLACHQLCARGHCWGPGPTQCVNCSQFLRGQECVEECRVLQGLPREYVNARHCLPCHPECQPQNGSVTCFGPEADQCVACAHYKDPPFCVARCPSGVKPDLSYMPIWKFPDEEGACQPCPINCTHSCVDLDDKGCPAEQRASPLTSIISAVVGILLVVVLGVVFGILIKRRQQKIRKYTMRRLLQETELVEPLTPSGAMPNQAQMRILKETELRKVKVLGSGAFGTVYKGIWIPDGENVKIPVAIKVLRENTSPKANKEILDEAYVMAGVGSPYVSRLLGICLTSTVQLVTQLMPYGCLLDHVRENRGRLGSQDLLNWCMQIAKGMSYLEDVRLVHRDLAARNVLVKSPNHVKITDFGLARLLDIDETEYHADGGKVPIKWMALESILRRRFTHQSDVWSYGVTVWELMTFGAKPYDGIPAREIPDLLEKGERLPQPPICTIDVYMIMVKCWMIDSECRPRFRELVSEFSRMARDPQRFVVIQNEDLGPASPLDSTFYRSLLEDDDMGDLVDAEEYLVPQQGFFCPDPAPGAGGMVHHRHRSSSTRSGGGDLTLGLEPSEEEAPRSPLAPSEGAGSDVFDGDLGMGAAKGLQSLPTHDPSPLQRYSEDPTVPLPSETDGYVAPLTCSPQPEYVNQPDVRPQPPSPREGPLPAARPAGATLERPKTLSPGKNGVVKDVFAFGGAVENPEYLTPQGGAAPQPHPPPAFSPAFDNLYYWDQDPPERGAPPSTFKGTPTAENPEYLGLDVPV
# [18] = biological target: T5, Estrogen receptor (Homo sapiens, UniProt P03372); test: Inhibition of estrogen receptor in human MCF-7 cells; assay type: cell-based
# T5 sequence (P03372 whole entry): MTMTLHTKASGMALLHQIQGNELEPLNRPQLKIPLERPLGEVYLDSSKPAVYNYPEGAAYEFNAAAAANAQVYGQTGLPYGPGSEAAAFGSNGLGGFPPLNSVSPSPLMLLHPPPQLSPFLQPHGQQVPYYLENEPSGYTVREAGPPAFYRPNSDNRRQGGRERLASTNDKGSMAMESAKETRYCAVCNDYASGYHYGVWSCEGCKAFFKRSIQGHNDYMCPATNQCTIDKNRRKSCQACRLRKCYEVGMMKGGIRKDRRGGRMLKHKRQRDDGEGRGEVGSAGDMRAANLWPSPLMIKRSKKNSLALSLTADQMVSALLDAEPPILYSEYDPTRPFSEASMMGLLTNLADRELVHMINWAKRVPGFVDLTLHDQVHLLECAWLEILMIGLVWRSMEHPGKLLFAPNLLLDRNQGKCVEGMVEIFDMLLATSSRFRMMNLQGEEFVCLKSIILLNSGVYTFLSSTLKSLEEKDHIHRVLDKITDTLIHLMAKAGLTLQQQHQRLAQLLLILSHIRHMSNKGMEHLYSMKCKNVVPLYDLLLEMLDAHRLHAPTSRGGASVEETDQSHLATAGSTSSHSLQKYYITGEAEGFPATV
# [19] = tested on: L1210; test: Antiproliferative activity against mouse L1210 cells after 2 to 3 days by Coulter counter method; assay type: functional, cell-based
# [20] = biological target: T5, Estrogen receptor; test: Inhibition of human estrogen receptor alpha expressed in HEK293 cells assessed as reduction in estrogen-induced transcriptional activation after 6 hrs by beta galactosidase reporter gene assay; assay type: cell-based
# [21] = biological target: T5, Estrogen receptor; test: Inhibition of human estrogen receptor alpha expressed in human MCF7 cells assessed as reduction in estrogen-induced transcriptional activation after 6 hrs by beta galactosidase reporter gene assay; assay type: cell-based
# [22] = biological target: T5, Estrogen receptor; test: Inhibition of human estrogen receptor alpha expressed in human LNCAP cells assessed as reduction in estrogen-induced transcriptional activation after 6 hrs by beta galactosidase reporter gene assay; assay type: cell-based
# [23] = biological target: T5, Estrogen receptor; test: Inhibition of human estrogen receptor alpha expressed in human MDA-MB-231 cells assessed as reduction in estrogen-induced transcriptional activation after 6 hrs by beta galactosidase reporter gene assay; assay type: cell-based
# [24] = biological target: T6, Estrogen receptor (Homo sapiens) (UniProt P03372); test: Displacement of [3H] estradiol from human estrogen receptor alpha after 18 hrs by scintillation counting analysis
# T6 sequence (whole entry): T5 sequence (P03372 whole entry)
# [25] = tested on: SK-BR-3; test: Growth inhibition of human SKBR3 cells; assay type: functional, cell-based
# [26] = biological target: T4, Receptor tyrosine-protein kinase erbB-2; test: Inhibition of HER2 in human MCF-7 cells after 24 hrs by immunoblotting analysis; assay type: cell-based
# [27] = Antiproliferative activity against human MDA435/LCC6 cells; assay type: functional, cell-based; conditions: MDA-435/LCC6
# [28] = biological target: Nitric oxide synthase, inducible (Rattus norvegicus, UniProt Q06518); test: Inhibition of rat iNOS after 12 to 24 hrs in presence of [gamma32P]ATP by electrophoretic mobility shift assays
# Sequence of Nitric oxide synthase, inducible (Q06518 whole entry): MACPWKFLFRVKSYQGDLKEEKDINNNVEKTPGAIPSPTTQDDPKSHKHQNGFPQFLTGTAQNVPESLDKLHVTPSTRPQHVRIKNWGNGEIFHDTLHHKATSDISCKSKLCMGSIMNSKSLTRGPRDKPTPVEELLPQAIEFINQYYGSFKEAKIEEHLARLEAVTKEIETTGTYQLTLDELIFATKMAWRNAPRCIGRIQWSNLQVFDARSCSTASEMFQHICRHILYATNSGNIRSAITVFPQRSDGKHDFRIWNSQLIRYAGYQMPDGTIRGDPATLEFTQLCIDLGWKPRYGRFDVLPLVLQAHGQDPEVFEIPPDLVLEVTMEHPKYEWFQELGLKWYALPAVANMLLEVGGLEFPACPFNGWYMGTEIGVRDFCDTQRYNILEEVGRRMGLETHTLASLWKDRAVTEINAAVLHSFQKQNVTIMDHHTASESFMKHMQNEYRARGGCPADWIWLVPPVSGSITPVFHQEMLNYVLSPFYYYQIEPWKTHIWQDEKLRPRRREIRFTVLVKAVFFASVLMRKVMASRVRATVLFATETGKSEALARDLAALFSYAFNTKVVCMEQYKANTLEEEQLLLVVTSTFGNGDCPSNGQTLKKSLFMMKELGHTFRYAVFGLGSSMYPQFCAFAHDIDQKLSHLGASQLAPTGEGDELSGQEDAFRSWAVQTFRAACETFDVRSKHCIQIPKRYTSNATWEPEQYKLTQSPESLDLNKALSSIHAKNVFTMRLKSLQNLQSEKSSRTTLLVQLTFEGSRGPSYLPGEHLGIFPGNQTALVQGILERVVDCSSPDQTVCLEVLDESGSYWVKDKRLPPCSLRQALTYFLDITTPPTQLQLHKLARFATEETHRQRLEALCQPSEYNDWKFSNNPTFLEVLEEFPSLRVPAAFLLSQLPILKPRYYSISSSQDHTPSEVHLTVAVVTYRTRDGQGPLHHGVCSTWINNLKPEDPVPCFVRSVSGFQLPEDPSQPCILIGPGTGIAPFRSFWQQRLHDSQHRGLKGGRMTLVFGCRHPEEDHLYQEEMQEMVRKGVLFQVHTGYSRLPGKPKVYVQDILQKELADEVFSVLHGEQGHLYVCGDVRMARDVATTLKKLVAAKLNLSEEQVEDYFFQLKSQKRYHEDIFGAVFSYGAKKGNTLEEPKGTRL
# T1 sequence (O42275 whole entry): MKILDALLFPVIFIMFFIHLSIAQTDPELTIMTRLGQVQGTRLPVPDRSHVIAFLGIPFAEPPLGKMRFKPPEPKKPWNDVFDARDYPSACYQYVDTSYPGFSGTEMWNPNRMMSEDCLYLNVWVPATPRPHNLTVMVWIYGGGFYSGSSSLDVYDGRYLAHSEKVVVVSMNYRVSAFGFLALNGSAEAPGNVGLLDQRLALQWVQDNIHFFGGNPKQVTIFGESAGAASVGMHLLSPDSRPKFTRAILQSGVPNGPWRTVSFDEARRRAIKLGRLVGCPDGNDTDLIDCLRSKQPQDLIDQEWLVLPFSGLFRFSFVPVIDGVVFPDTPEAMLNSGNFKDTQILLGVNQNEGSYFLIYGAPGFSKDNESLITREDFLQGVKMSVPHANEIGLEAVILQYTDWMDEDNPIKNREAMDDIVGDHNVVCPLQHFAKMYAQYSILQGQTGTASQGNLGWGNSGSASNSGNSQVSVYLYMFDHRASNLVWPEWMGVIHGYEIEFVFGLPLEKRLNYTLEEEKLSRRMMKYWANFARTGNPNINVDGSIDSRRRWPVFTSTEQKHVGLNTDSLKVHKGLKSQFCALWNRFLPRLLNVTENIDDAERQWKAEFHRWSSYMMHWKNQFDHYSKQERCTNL
compound,measurement,setting,value
COc1ccc2c3c1O[C@H]1C[C@@H](O)CC[C@@]31CCN(CCCCCCCCCCCC[N+]1=Cc3ccc(OC)c4c3[C@@]3(C=C[C@H](O)C[C@@H]3O4)CC1)C2,IC50,[1],12 nM
CCN[C@H]1CO[C@@H](O[C@H]2[C@H](OCOC[C@@]34C#CCCC#C[C@@H]5N(C(=O)OCCS(=O)(=O)c6ccccc6)c6ccccc6[C@]36O[C@@]56CCC4)O[C@H](C)[C@@H](NO[C@H]3C[C@H](O)[C@H](SC(=O)c4c(C)c(I)c(O[C@@H]5O[C@@H](C)[C@H](O)[C@@H](OC)[C@H]5O)c(OC)c4OC)[C@@H](C)O3)[C@@H]2O)C[C@@H]1OC,IC50,[2],0.1 nM
same,IC50,[3],160 nM
COc1cc2c(ccc1=O)[C@H]1CC[C@]3(C)[C@@H](O)CC[C@H]3[C@@H]1CC2,IC50,[4],2100 nM
CCN[C@H]1CO[C@@H](O[C@H]2[C@H](OC[C@]34C#C/C=C\C#C[C@H]5N(C(=O)OCCS(=O)(=O)c6ccccc6)c6ccccc6[C@@]36O[C@]56CCC4)O[C@H](C)[C@@H](NO[C@H]3C[C@H](O)[C@H](SC(=O)c4c(C)c(I)c(O[C@@H]5O[C@@H](C)[C@H](O)[C@@H](OC)[C@H]5O)c(OC)c4OC)[C@@H](C)O3)[C@@H]2O)C[C@@H]1OC,IC50,[2],1 nM
same,IC50,[3],1 nM
C[C@@]12CC[C@@H]3[C@@](CC[C@H]4[C@@]3(C)CCC[C@@]4(C)C(=O)O)(C/C1=N\NC(=O)c1cccnc1)C2,MIC,[5],10 to 20 µg/mL
C[C@@H](C1=CC[C@@H]2[C@@H]3[C@@H](O)[C@H](O)[C@H]4C[C@@H](O)CC[C@]4(C)[C@H]3CC[C@]12C)[C@@H](O)C1=CC(=O)OC1O (stereo not given in full),inhibition,[6],63%
same,inhibition,[7],64%
same,inhibition,[8],72%
COc1ccc2c(c1)CC[C@@H]1[C@@H]2CC[C@]2(C)CO[C@@]3(C[C@@H](O)C(CO)=CO3)C[C@@H]12,EC50,[9],23000 nM
CC1CCC2CC(Cc3nc4ccccc4c(N)c32)C1 (stereo not given),IC50,[10],1.3 nM
COc1ccc2c3c1O[C@H]1C[C@@H](O)CC[C@@]31CCN(CCCCCCCCN1CC[C@@]34C=C[C@H](O)C[C@@H]3Oc3c(OC)ccc(c34)C1)C2,IC50,[1],230 nM
COc1ccc2c3c1O[C@H]1C[C@@H](O)C=C[C@]31CC[N+](CCCCCCCCCCN1C(=O)c3ccccc3C1=O)=C2,Ratio IC50,[11],16 to 36
same,IC50,[12],22 nM
CC(C)[C@@H](C)/C=C/[C@@H](C)[C@H]1CC[C@H]2c3ccc4c(c3CC[C@]12C)C(=O)c1c(O)ccc(O)c1C4=O,IC50,[13],23000 nM
same,IC50,[14],34000 nM
same,IC50,[15],49000 nM
same,IC50,[16],23000 nM
COc1ccc2c3c1O[C@H]1C[C@@H](O)CC[C@@]31CCN(CCCCCCN1CC[C@@]34C=C[C@H](O)C[C@@H]3Oc3c(OC)ccc(c34)C1)C2,IC50,[1],450 nM
CO[C@H]1/C=C\C=C(/C)C(=O)NC2=CC(=O)C(NCC#CCC[C@@H]3C[C@H]4[C@@H]5CCc6cc(O)ccc6[C@H]5CC[C@]4(C)[C@H]3O)=C(C[C@@H](C)C[C@H](OC)[C@H](O)[C@@H](C)/C=C(\C)[C@@H]1OC(N)=O)C2=O (stereo in doubt),IC50,[17],100 nM
same,IC50,[18],220 nM
CCC1CCC2CC(Cc3nc4ccccc4c(N)c32)C1 (stereo not given),IC50,[10],1.15 nM
C[C@@]12CC[C@@H]3[C@@](CC[C@H]4[C@@]3(C)CCC[C@@]4(C)C(=O)O)(C/C1=N\NC(=O)c1ccncc1)C2,MIC,[5],10 to 20 µg/mL
COC(=O)[C@]1(C)CCC[C@@]2(C)[C@@H]3CC[C@@]4(C)C[C@]3(CC[C@@H]21)C/C4=N\NC(=O)c1ccccn1,MIC,[5],10 to 20 µg/mL
Cc1n[nH]c2c(O)cc3c(c12)C(CCl)CN3C(=O)c1cc(C(=O)Nc2cc(C(=O)Nc3cc(C(=O)Nc4cc(C(=O)NCCC(=N)N)n(C)c4)n(C)c3)n(C)c2)n(C)n1 (stereo not given),IC50,[19],7400 nM
C[C@]12CC[C@@H]3c4ccc(O)cc4CC[C@H]3[C@@H]1CC[C@@]2(O)C#CC(=O)OCC1CC#C/C=C\C#CCC1 (stereo not given in full),IC50,[20],10000 nM
same,IC50,[21],31000 nM
same,IC50,[22],33000 nM
same,IC50,[23],48000 nM
same,Activity,[24],0.51 µM
COC(=O)[C@]1(C)CCC[C@@]2(C)[C@@H]3CC[C@@]4(C)C[C@]3(CC[C@@H]21)C/C4=N\NC(=O)c1ccncc1,MIC,[5],10 to 20 µg/mL
CO[C@H]1/C=C\C=C(/C)C(=O)NC2=CC(=O)C(NC/C=C/CCC[C@@H]3C[C@H]4[C@@H]5CCc6cc(O)ccc6[C@H]5CC[C@]4(C)[C@H]3O)=C(C[C@@H](C)C[C@H](OC)[C@H](O)[C@@H](C)/C=C(\C)[C@@H]1OC(N)=O)C2=O (stereo in doubt),IC50,[17],100 nM
same,IC50,[18],80 nM
CO[C@H]1/C=C\C=C(/C)C(=O)NC2=CC(=O)C(NCCCCNC3=C4C[C@@H](C)C[C@H](OC)[C@H](O)[C@@H](C)/C=C(\C)[C@H](OC(N)=O)[C@@H](OC)/C=C\C=C(/C)C(=O)NC(=CC3=O)C4=O)=C(C[C@@H](C)C[C@H](OC)[C@H](O)[C@@H](C)/C=C(\C)[C@@H]1OC(N)=O)C2=O,IC50,[25],20 nM
same,IC50,[26],60 nM
CC(=O)O[C@H]1C(=O)[C@@]2(C)[C@H]([C@@H]3OC(=O)c4ccccc4OC/C=C/CC[C@H](NC(=O)OC(C)(C)C)[C@@H](O)C(=O)O[C@@H]4C[C@]3(O)C(C)(C)C1=C4C)[C@]1(OC(C)=O)CO[C@@H]1C[C@@H]2O,IC50,[27],390 nM
COC(=O)[C@]1(C)CCC[C@@]2(C)[C@@H]3CC[C@@]4(C)C[C@]3(CC[C@@H]21)C/C4=N\NC(=O)c1cccnc1,MIC,[5],10 to 20 µg/mL
C[C@@]12CC[C@@H]3[C@@](CC[C@H]4[C@@]3(C)CCC[C@@]4(C)C(=O)O)(C/C1=N\NC(=O)c1ccccn1)C2,MIC,[5],10 to 20 µg/mL
CC1(C)CC[C@]2(C(=O)O)CC[C@]3(C)C(=CC[C@@H]4[C@@]5(C)C=CC(=O)C=C5CC[C@]43C)[C@@H]2C1,IC50,[28],900 nM
